“Also recorded” adds a separate entry of the source.

We go through three compounds from patent publication US20240366661A1, “COMPOSITIONS FOR AND METHODS OF TREATING A SUBJECT HAVING INFLAMMATION” (The George Washington University, priority 2022, published 2024).

The subject of assay [1] is murine bone marrow derived macrophages (BMDMs). In words: QRT-PCR of M2 markers in bone marrow derived macrophages pre-treated with HDAC11 inhibitor and polarized to M2. The class given is cell-based. The conditions noted are these: inhibitor 5 μM pre-treatment overnight prior to M2 polarization. Here is the method:
(§1) Upon treatment with M-CSF, bone marrow-derived monocytes (BMDM) differentiate into naïve (M0) macrophages. In the case of peritoneal exudate macrophages (PEMs), naïve M0 macrophages are isolated from the peritoneal cavity. These M0 macrophages are pre-treated with HDAC11 inhibitor followed by polarization to M2 macrophages with IL4 and IL13 cytokines or other cytokine mix including but not limited to IL10 and TGF beta.
Next, HDAC11 inhibitors were evaluated for their ability to modulate the function of macrophages. […] These commercially available HDAC11 inhibitors were tested on macrophages in-vitro to identify their macrophage modulatory properties. Next, BMDMs were isolated and polarized towards M2 phenotype with HDAC11 inhibitor pre-treatment overnight.

The next assay addresses T1, HDAC11 (Homo sapiens, UniProt Q96DB2).
T1 sequence (Q96DB2 1-347): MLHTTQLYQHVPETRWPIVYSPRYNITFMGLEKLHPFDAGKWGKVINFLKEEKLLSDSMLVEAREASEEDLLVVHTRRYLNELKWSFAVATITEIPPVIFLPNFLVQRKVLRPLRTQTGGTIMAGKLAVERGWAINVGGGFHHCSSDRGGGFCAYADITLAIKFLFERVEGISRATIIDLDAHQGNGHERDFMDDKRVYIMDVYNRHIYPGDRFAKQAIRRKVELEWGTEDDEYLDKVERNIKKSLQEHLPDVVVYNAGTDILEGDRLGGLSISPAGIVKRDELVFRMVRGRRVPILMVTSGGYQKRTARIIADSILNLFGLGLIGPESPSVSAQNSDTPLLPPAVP
Particulars: literature statement; cited from earlier work.

Assay [2] has as its system peritoneal exudated macrophages (PEMs). The assay can be described thus: ELISA of IL-10 and TGFβ cytokines in peritoneal exudate macrophages treated with HDAC11 inhibitor. It counts as cell-based. Particulars: dose-dependent.
From the text: as §1, with “beta. […] A chromatin immunoprecipitation assay further confirmed that HDAC11 binded preferentially to the distal promoter region of IL10, and negatively regulated its gene expression (FIG. 1B). […] This confirmed that the HDAC11 inhibitor was highly specific, and that it could recapitulate the effect of HDAC11 genetic knock down.” for “beta.”
Therefore, HDAC11 inhibitor treated M2 macrophages as a cell therapy and or topical HDAC11 inhibitor application are excellent to treat inflammatory diseases.

As for `CC1(C)c2cccc(C(=O)NO)c2CN1c1cnc(C(F)(F)F)cn1` [FT895], in assay [1], the Arg1 expression result was “did not affect”, the Fizz1 expression result is listed as “further enhanced the expression of Fizz1” and the Mrc1 expression result is reported as “did not affect”.

`CCCCCCCCCCCCCCCCNNC(=O)c1cccs1` [SIS17]: in assay [1], the Arg1 expression result was “increased the expression of Arg1 and Mrc1”; the Fizz1 expression result is listed as “further enhanced the expression of Fizz1”; the Mrc1 expression entry was “increased the expression of Arg1 and Mrc1”. For the same compound, at HDAC11, the “inhibition of HDAC11 (demyristoylation activity; potency and selectivity)” value is “inhibit the demyristoylation activity of HDAC11 without inhibiting other HDACs”.

`COc1ccccc1NC(=O)NCc1ccc(C(=O)NO)cc1` [elevenostat]: in assay [2], the “expression of IL-10 cytokine” value is “increased the expression of IL-10 and TGFβ cytokines in a dose-dependent manner; also recorded: dose dependent increase”; the “expression of TGFβ cytokine” value is “increased the expression of IL-10 and TGFβ cytokines in a dose-dependent manner; also recorded: dose dependent increase”.
